Assay results: ChEMBL document CHEMBL5715952 (Oncotarget, 2015)
Values belong to the molecule of their own block, whether it stands above or below them.

How the values were obtained:
[1] = Ratio of IC50 for inhibition of CAMKII in human RPMI-8226 cells assessed as reduction of cell viability to IC50 for inhibition of CAMKII in human RPMI-8226/BR resistant cells assessed as reduction of cell viability; settings: condition multiple myeloma
[2] = Ratio of IC50 for inhibition of CAMKII in human ANBL6 cells assessed as reduction of cell viability to IC50 for inhibition of CAMKII in human ANBL6/BR resistant cells assessed as reduction of cell viability; settings: condition multiple myeloma
[3] = Inhibition of CAMKII in human U-266 cells assessed as reduction of cell growth incubated for 72 hrs by CellTiter 96 aqueous one solution cell proliferation assay; format: cell-based; settings: U-266, 72 h
[4] = Inhibition of CAMKII in Melphalan Resistant human RPMI-8226 cells assessed as reduction of cell growth incubated for 72 hrs by CellTiter 96 aqueous one solution cell proliferation assay; format: cell-based; settings: Melphalan-resistant RPMI-8226 cell
[5] = Ratio of IC50 for inhibition of CAMKII in human RPMI-8226 cells assessed as reduction of cell viability to IC50 for inhibition of CAMKII in human melphalan-resistant RPMI-8226 cells assessed as reduction of cell viability; settings: time 72 hrs; condition multiple myeloma
[6] = Inhibition of CAMKII in bortezomib Resistant human RPMI-8226 cells assessed as reduction of cell growth incubated for 72 hrs by CellTiter 96 aqueous one solution cell proliferation assay; format: cell-based; settings: Bortezomib-resistant RPMI-8226, 72 h
[7] = Inhibition of CAMKII in human RPMI-8226 cells assessed as reduction of cell growth incubated for 72 hrs by CellTiter 96 aqueous one solution cell proliferation assay; format: cell-based; settings: RPMI-8226, 72 h
[8] = Inhibition of CAMKII in human bortezomib-resistant ANBL6 cells assessed as reduction of cell growth incubated for 72 hrs by CellTiter 96 aqueous one solution cell proliferation assay; format: cell-based
[9] = Inhibition of CAMKII in human ANBL-6 cells assessed as reduction of cell growth incubated for 72 hrs by CellTiter 96 aqueous one solution cell proliferation assay; format: cell-based; settings: ANBL-6, 72 h
MAP kinase p38 [10] = molecular target: T1, MAP kinase p38 (Homo sapiens, UniProt O15264+Q15759+Q16539+P53778); test: Inhibition of c-JUN in Melphalan Resistant human RPMI-8226 cells assessed as reduction of cell growth incubated for 72 hrs by CellTiter 96 aqueous one solution cell proliferation assay; format: cell-based; settings: melphalan-resistant rpmi-8226 cell
MAP kinase p38 [11] = molecular target: T1, MAP kinase p38; test: Ratio of IC50 for inhibition of c-JUN in human RPMI-8226 cells assessed as reduction of cell viability to IC50 for inhibition of c-JUN in human RPMI-8226/BR resistant cells assessed as reduction of cell viability; format: cell-based
MAP kinase p38 [12] = molecular target: T1, MAP kinase p38; test: Inhibition of c-JUN in human bortezomib-resistant ANBL6 cells assessed as reduction of cell growth incubated for 72 hrs by CellTiter 96 aqueous one solution cell proliferation assay; format: cell-based
MAP kinase p38 [13] = molecular target: T1, MAP kinase p38; test: Inhibition of c-JUN in bortezomib Resistant human RPMI-8226 cells assessed as reduction of cell growth incubated for 72 hrs by CellTiter 96 aqueous one solution cell proliferation assay; format: cell-based; settings: bortezomib-resistant rpmi-8226
MAP kinase p38 [14] = molecular target: T1, MAP kinase p38; test: Inhibition of c-JUN in human ANBL-6 cells assessed as reduction of cell growth incubated for 72 hrs by CellTiter 96 aqueous one solution cell proliferation assay; format: cell-based
MAP kinase p38 [15] = molecular target: T1, MAP kinase p38; test: Ratio of IC50 for inhibition of c-JUN in human ANBL6 cells assessed as reduction of cell viability to IC50 for inhibition of c-JUN in human ANBL6/BR resistant cells assessed as reduction of cell viability; format: cell-based
MAP kinase p38 [16] = molecular target: T1, MAP kinase p38; test: Inhibition of c-JUN in human U-266 cells assessed as reduction of cell growth incubated for 72 hrs by CellTiter 96 aqueous one solution cell proliferation assay; format: cell-based
MAP kinase p38 [17] = molecular target: T1, MAP kinase p38; test: Ratio of IC50 for inhibition of c-JUN in human RPMI-8226 cells assessed as reduction of cell viability to IC50 for inhibition of c-JUN in human melphalan-resistant RPMI-8226 cells assessed as reduction of cell viability; format: cell-based; settings: time 72.0 hrs
MAP kinase p38 [18] = molecular target: T1, MAP kinase p38; test: Inhibition of c-JUN in human RPMI-8226 cells assessed as reduction of cell growth incubated for 72 hrs by CellTiter 96 aqueous one solution cell proliferation assay; format: cell-based
cells [19] = settings: Homo sapiens, U-266, 72 h
cells [20] = settings: Homo sapiens, RPMI-8226, 72 h
cells [21] = settings: Homo sapiens, Bortezomib-resistant RPMI-8226, 72 h
[22] = molecular target: Baculoviral IAP repeat-containing protein 5 (Homo sapiens) (UniProt O15392); test: Ratio of IC50 for inhibition of survivin in human ANBL6 cells assessed as reduction of cell viability to IC50 for inhibition of survivin in human ANBL6/BR resistant cells assessed as reduction of cell viability; format: cell-based
[23] = molecular target: Baculoviral IAP repeat-containing protein 5 (Homo sapiens) (UniProt O15392); test: Ratio of IC50 for inhibition of survivin in human RPMI-8226 cells assessed as reduction of cell viability to IC50 for inhibition of survivin in human RPMI-8226/BR resistant cells assessed as reduction of cell viability; format: cell-based
[24] = molecular target: Baculoviral IAP repeat-containing protein 5 (Homo sapiens) (UniProt O15392); test: Ratio of IC50 for inhibition of survivin in human RPMI-8226 cells assessed as reduction of cell viability to IC50 for inhibition of survivin in human melphalan-resistant RPMI-8226 cells assessed as reduction of cell viability; format: cell-based; settings: time 72.0 hrs
cells [25] = settings: Homo sapiens, Melphalan-resistant RPMI-8226 cell, 72 h
cells [26] = settings: Homo sapiens, ANBL-6, 72 h
cells [27] = settings: Homo sapiens, Bortezomib-resistant RPMI-8226, 72 h; remark: listed apart in the source
cells [28] = settings: Homo sapiens, Bortezomib-resistant ANBL6 cell, 72 h
Heat shock protein HSP90 [29] = molecular target: T2, Heat shock protein HSP90 (Homo sapiens, UniProt P07900+P08238); settings: bortezomib-resistant anbl6 cell
Heat shock protein HSP90 [30] = molecular target: T2, Heat shock protein HSP90; settings: u-266
Heat shock protein HSP90 [31] = molecular target: T2, Heat shock protein HSP90; settings: anbl-6
Heat shock protein HSP90 [32] = molecular target: T2, Heat shock protein HSP90; settings: rpmi-8226
Heat shock protein HSP90 [33] = molecular target: T2, Heat shock protein HSP90; settings: bortezomib-resistant rpmi-8226
Heat shock protein HSP90 [34] = molecular target: T2, Heat shock protein HSP90; settings: melphalan-resistant rpmi-8226 cell

Chain of Baculoviral IAP repeat-containing protein 5 (Homo sapiens) (O15392 whole entry): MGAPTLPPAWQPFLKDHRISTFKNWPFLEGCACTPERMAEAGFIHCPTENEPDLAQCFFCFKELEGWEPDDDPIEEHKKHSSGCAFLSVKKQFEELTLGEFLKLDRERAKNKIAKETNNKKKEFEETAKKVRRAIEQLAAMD

Compound: COc1ccc(S(=O)(=O)N(CCO)c2ccccc2CN(C)C/C=C/c2ccc(Cl)cc2)cc1
Ratio IC50 [1]: 1
Ratio IC50 [2]: 1
IC50 [3]: 10 µM
IC50 [4]: 8.32 µM
Ratio IC50 [5]: 1.2
IC50 [6]: 10 µM
IC50 [7]: 10 µM
IC50 [8]: 10 µM
IC50 [9]: 10 µM

IC50 (MAP kinase p38 [10]): 8.6186 µM
IC50 (MAP kinase p38 [12]): 32.4358 µM
IC50 (MAP kinase p38 [13]): 13.6498 µM
IC50 (MAP kinase p38 [14]): 8.1648 µM
IC50 (MAP kinase p38 [16]): 44.8735 µM
IC50 (MAP kinase p38 [18]): 10.415 µM
Compound: Cn1nc2c3c(cccc31)C(=O)c1ccccc1-2
Ratio IC50 (MAP kinase p38 [11]): 0.76
Ratio IC50 (MAP kinase p38 [15]): 0.25
Ratio IC50 (MAP kinase p38 [17]): 2.4

Compound: COc1cc(Oc2ccnc3cc(OC)c(OC)cc23)ccc1NC(=O)NC(C)c1nccs1 (stereo not given)
IC50 (cells [19]): 10 µM
IC50 (cells [20]): 10 µM

Compound: COc1ccc(S(=O)(=O)Nc2ccccc2CN(C)C/C=C/c2ccc(Cl)cc2)cc1
Ratio IC50 [1]: 1
Ratio IC50 [2]: 1
IC50 [3]: 10 µM
IC50 [4]: 4.79 µM
Ratio IC50 [5]: 2.1
IC50 [6]: 10 µM
IC50 [7]: 10 µM
IC50 [8]: 10 µM
IC50 [9]: 10 µM

Compound: Cc1[nH]c(/C=C2/C(=O)Nc3ccc(S(=O)(=O)N(C)c4cccc(Cl)c4)cc32)c(C)c1C(=O)N1CCN(C)CC1
IC50 (cells [21]): 10 µM

Compound: COCC[n+]1c2c(n(Cc3cnccn3)c1C)C(=O)c1ccccc1C2=O
Ratio IC50 [22]: 3.15
Ratio IC50 [23]: 0.33
Ratio IC50 [24]: 1.5

Compound: COc1cc2c(Oc3ccc4[nH]c(C)cc4c3F)ncnc2cc1OCCCN1CCCC1 [CEDIRANIB]
IC50 (cells [25]): 4.79 µM
IC50 (cells [19]): 6.46 µM
IC50 (cells [20]): 2.95 µM
IC50 (cells [26]): 10 µM
IC50 (cells [27]): 2.46 µM
IC50 (cells [28]): 10 µM

IC50 (Heat shock protein HSP90 [29]): 0.0076 µM
IC50 (Heat shock protein HSP90 [30]): 0.0535 µM
IC50 (Heat shock protein HSP90 [31]): 0.0489 µM
IC50 (Heat shock protein HSP90 [32]): 0.0167 µM
IC50 (Heat shock protein HSP90 [33]): 0.0229 µM
IC50 (Heat shock protein HSP90 [34]): 0.0072 µM
Compound: CN(NC(=O)CC(=O)NN(C)C(=S)c1ccccc1)C(=S)c1ccccc1 [ELESCLOMOL]
